Reference: patent US20120301468A1, “ANTI-MN ANTIBODIES AND METHODS OF USING SAME” (BAYER HEALTHCARE LLC, priority 2005, published 2012)
pEC50: −log10 of the molar value.

Key:
[1] = test system: MN-negative DLD cells; assay: FACS cell binding, DLD cells; format: cell-based
Protocol: Cells may be assayed for MN expression as a diagnostic tool. Adherent MN-expressing PC-3 mm2 cells and non-MN expressing DLD1 cells were detached from their flasks with 1:10 trypsin/Versene in PBS solution for 5 to 10 minutes. Cells were spun down (1000 rpm, 5 minutes), washed once with ice cold RPMI 10% FBS, and resuspended in ice-cold staining buffer (Ca^+ Mg^+-free PBS, 2% BSA, and 0.05% sodium azide) at 6×10^6 cells/ml. Primary antibody, human anti-MN IgG1, or control human IgG1 antibody at 25 μg/mL were incubated with 6×10^5 cells on ice for 1 hour. The unbound antibody was washed from the cells with the ice-cold staining buffer. The cells were fixed with 2% formaldehyde in PBS for 10 minutes, then washed twice with staining buffer. The cell pellet was resuspended in 100 μl ice cold staining buffer containing anti-human Alexa fluor 488 secondary antibody (final conc. 1:200, Molecular Probes/Invitrogen, Carlsbad, Calif.), and incubated on ice for 1 hour. The unbound antibody was washed from the cells two times with flow buffer (PBS containing 2% BSA), and the cells were resuspended in 1 mL flow buffer. FACS analysis of the resuspended cells was performed on a […] FACS Caliber instrument.
The MN antibody G250, a humanized IgG1 antibody, (Wilex) was used as a reference throughout the in vitro studies.

[2] = test system: Colo-205 CRC xenograft; assay: Colo-205 subcutaneous xenograft model
Excerpt: The in vivo anti-tumor effect of 3ee9/MMAE was examined in 6 different human xenograft tumor models. These models were established through subcutaneous implantation of human tumor cells into female athymic NCr (nu/nu) mice (Taconic, N.Y.). The human tumor xenograft models evaluated included the MaTu human mammary carcinoma model, the HT-29 and Colo-205 human colo-rectal carcinoma (CRC) models, PC3MM2 prostate carcinoma model, the HCT-15 multi-drug resistant (P-gp) CRC model, and the MiaPaCa2 human pancreatic model. PBS was used as a vehicle, and dosing solutions were prepared fresh daily. The dosing volume was 0.1 mL/10 g (10 mL/kg).
The length and width of each tumor were measured using an electronic caliper 2-3 times per week, and tumor weights (mg) were calculated based on the formula of [length (mm)×width (mm)^2]/2. All data, including daily observations, obtained throughout the course of the study were documented in Anti-tumor Data Acquisition System (ADAS). […] Tumor growth inhibition (TGI) was calculated as (1-T/C)×100, where T=final tumor weights from a treated group after the last dose, and C=final tumor weights from the control group after the last dose. In addition, anti-tumor efficacy was measured as the incidence of responses (or responders or regressions) defined as tumors with ≦50% of their initial size. A minimum duration of 7 days is required for a response to be considered durable.
The anti-tumor activity of 3ee9/MMAE was next evaluated against human prostate (PC-3 mm2) and CRC (Colo-205) tumor xenografts. Female NCr nu/nu mice were implanted subcutaneously (s.c.) either with 5×10^6 PC3 mm2 or Colo-205 cells. Treatment was initiated when tumors were of an average size of approximately 125-150 mg. The general health of mice was monitored and recorded daily. Tumor dimensions and body weights were recorded twice a week starting with the first day of treatment.
In the PC3 mm2 and Colo-205 studies, 3ee9/MMAE was administered intravenously (i.v.) once every 4th day for a total of 3 injections (Q4Dx3) at doses of 1, 3, 10 and 30 mg/kg and 1.25, 2.5, 5 and 10 mg/kg, respectively.
The feasibility of using 3ee9/MMAE in conjunction with other cancer chemotherapeutic agents was investigated. Xeloda® is used as first line treatment of patients with metastatic colorectal carcinoma. The activity and tolerability of combined therapy using 3ee9/MMAE and Xeloda® was evaluated. 3ee9/MMAE was administered i.v. on a Q4Dx3 schedule and at dose levels of 1.25, 2.5 and 10 mg/kg. Xeloda® was administered orally once daily for 9 days at dose levels of 250 and 500 mg/kg.

[3] = test system: high MN-expressing huMN-MIAPaCa2 xenograft; assay: huMN-MIAPaCa2 xenograft model; format: in vivo, mice; conditions: for TGI: end of dosing
Protocol: To better understand the relationship between MN expression and antitumor efficacy, xenograft efficacy studies were conducted using a low MN-expressing pancreatic model, MIAPaCa2 and high MN-expressing huMN-MIAPaCa2 model. This latter line was derived by engineering the MIAPaCa2 line to stably express MN. […] 3ee9/MMAE dosed at 10 mg/kg only produced 50% TGI.

[4] = test system: MN-negative MIAPaca2 cells; assay: In vitro cytotoxicity, MIAPaca2
[5] = Colo-205, 1.25 mg/kg/inj Q4D × 3 IV
[6] = Colo-205, 2.5 mg/kg/inj Q4D × 3 IV
[7] = Colo-205, 10 mg/kg/inj Q4D × 3 IV

Q: For “3ee9/MMAE: human anti-MN IgG1 antibody 3ee9 conjugated to Monomethylauristatin E (MMAE)”, which “cell binding by FACS” value [1] is on record?
A: The value was “not MN-negative DLD cells”.

Q: What about the “% Inhibition (T/C) (d 17)” value [2, 5] of the same substance?
A: Its value is 30.6%.

Q: And the “% Regressions” value [2, 5]?
A: The value was 0%.

Q: What about the “% Weight Loss (d 17)” value [2, 5] of the same substance?
A: The value was 0.5%.

Q: What about the TGI ([2]; Colo-205, 2.5 mg/kg i.v. Q4Dx3, end of dosing) of the same substance?
A: Its TGI is > 70%.

Q: And the “% Inhibition (T/C) (d 17)” value [2, 6]?
A: Its value is 73%.

Q: And the “% Regressions” value [2, 6]?
A: Its value is 0%.

Q: What about the “% Weight Loss (d 17)” value [2, 6] of the same substance?
A: The value was 0.1%.

Q: What about the “responses (regressions)” value ([2]; Colo-205, 5 mg/kg Q4Dx3) of the same substance?
A: The value was 40%.

Q: What about the “responses (regressions)” value ([2]; Colo-205, 10 mg/kg Q4Dx3) of the same substance?
A: The value was 80%.

Q: What about the “% Inhibition (T/C) (d 17)” value [2, 7] of the same substance?
A: The value was 96.2%.

Q: And the “% Regressions” value [2, 7]?
A: The value was 80%.

Q: And the “% Weight Loss (d 17)” value [2, 7]?
A: The value was 0.9%.

Q: What about the TGI ([2]; Colo-205, 5 and 10 mg/kg i.v. Q4Dx3, end of dosing) of the same substance?
A: The TGI was > 90%.

Q: What about the TGI ([2]; Colo-205, alone 1.25 mg/kg i.v. Q4Dx3) of the same substance?
A: Its TGI is 31%.

Q: And the TGI ([2]; Colo-205, alone 2.5 mg/kg i.v. Q4Dx3)?
A: The TGI was 73%.

Q: And the response rate ([2]; Colo-205, alone 10 mg/kg)?
A: The response rate was 80%.

Q: What about the TGI ([2]; Colo-205, alone 10 mg/kg i.v. Q4Dx3) of the same substance?
A: Its TGI is 96%.

Q: And the anti-tumor effect ([2]; Colo-205, lowest dose, 1 mg/kg)?
A: Its anti-tumor effect is “relatively ineffective”.

Q: And the anti-tumor effects ([2]; Colo-205 human colo-rectal cancer xenograft model)?
A: Its anti-tumor effects is “anti-tumor effects were seen”.

Q: And the TGI ([3]; 2.5 mg/kg)?
A: The TGI was 63%.

Q: What about the TGI ([3]; 5 mg/kg) of the same substance?
A: Its TGI is 82%.

Q: What about the responses ([3]; 10 mg/kg) of the same substance?
A: The responses was 100%.

Q: What about the TGI ([3]; 10 mg/kg) of the same substance?
A: The TGI was 94%.

Q: And the cytotoxicity ([4]; MIAPaca2 (MN−))?
A: Its cytotoxicity is “not to MN-negative MIAPaca2 cells”.

Q: What about the “killing of MN-negative cells” value ([4]; doses as high as 1 uM) of the same substance?
A: The value was “Less than 10%”.

Q: And the pEC50 ([4]; read-out: Cytotoxicity: MN− (ec50), MN− cells)?
A: Its pEC50 is < 6.00.
